# Assay results published in US20120129822A1, “COMPOSITION CONTAINING DIOSGENIN AND USE THEREOF TO IMPROVE AT LEAST ONE OF COGNITIVE DEFICITS ASSOCIATED WITH MENOPAUSAL SYNDROME” (TL & GM Chemical Company, priority 2010, published 2012).
# “Also recorded” adds a separate entry of the source.
# What was measured:
# [1] = system: OVX rats having clinical signs of osteoporosis; details: sustained delivery; cited from earlier work
# [2] = system: OVX mice; details: cited from earlier work
# [3] = system: breast cancer-burdened mice; details: cited from earlier work
# [4] = system: OVX rats without anxiety; assay: Learned helplessness test (day-2 active avoidance test, shuttle box), OVX rats without anxiety; type: in vivo, female Wistar rats; details: for Avoidance response (number) / Escape response (number) / Failure response (number): 23 days, 16 trials, mean±SEM
# Method: (§1) Three daily dosages of diosgenin, i.e., 10, 50, or 100 mg/kg, were administered to the experimental animals in the following experiments. A proper amount of diosgenin (Sigma, USA, required for formulating a respective one of the three daily dosages) was mixed with 1 g of toast or raw dough (prepared by mixing flour and water in a ratio of 2:1 (wt/wt)), thereby forming a diosgenin-containing pellet. The experimental animals were orally administered with the diosgenin-containing pellets, starting about 4 weeks after ovariectomy.
# (§2) A shuttle box used in Example 1 (AccuScan, USA) is composed of two equal compartments. Each of the compartments has a grid floor made of stainless steel bars. The compartments are separated by a wall having a central door. Specifically, the central door can be closed to separate the two compartments, or can be opened to allow the experimental animals to move freely between the two compartments therethrough. A conditioned stimulus (CS, a stimulus consisting of a tone (75 db) and a light (250 lux) and lasting 3 seconds) and an unconditioned stimulus (UCS, an electric foot shock (0.5 mA) lasting a maximum of 10 seconds) were administered to the experimental animals from the shuttle box under control of a computer. The shuttle box was thoroughly cleaned using 20% ethanol and was subsequently thoroughly dried before each of the experimental animals was tested.
# (§3) The OVX rats with and without anxiety, which were identified in the preceding section A, were respectively randomly subdivided into 4 groups including a control group and three experimental groups (respectively designated as diosgenin groups 1-3). The diosgenin-containing pellets (made using diosgenin and toast), which were prepared according to the method as described in the section entitled “2. Diosgenin-containing pellets” of the Experimental Materials, respectively comprised the three daily dosages of diosgenin (i.e., 10, 50, and 100 mg/kg), and were respectively administered to the OVX rats in diosgenin groups 1-3 daily. In other words, the daily dosage of diosgenin administered to the OVX rats in diosgenin group 1 was 10 mg/kg, the daily dosage of diosgenin administered to the OVX rats in diosgenin group 2 was 50 mg/kg, and the daily dosage of diosgenin administered to the OVX rats in diosgenin group 3 was 100 mg/kg. The toast without diosgenin was administered daily to the OVX rats in the control group. After 23 days of administration, the OVX rats in each group were subjected to the following learned helplessness test so as to investigate the effect of diosgenin on the learning ability of the OVX rats with and without anxiety under stress.
# (§4) The learned helplessness test in this example was conducted substantially according to the methods as described in W. F. Wang et al. (2007), Chin. J. Physiol., 50:63-68 and Y. T. Lee et al. (2008), Neuroreport, 19:1243-1247, except for minor modifications. The learned helplessness test in this example is generally described as follows.
# (§5) The respective OVX rat was placed in one of the two compartments of the shuttle box, and was allowed to explore the two compartments through the central door, which was opened, for 1 minute. Afterward, the central door was closed. The respective OVX rat was subjected to 40 trials of inescapable CS-UCS pairing. Specifically, each of the 40 trials of inescapable CS-UCS pairing consisted of a CS and a subsequent UCS, and a mean interval between the two successive trials of inescapable CS-UCS pairing was 60 seconds (the interval between the two successive trials of inescapable CS-UCS pairing ranged from 50 to 70 seconds).
# (§6) The respective OVX rat was placed in one of the two compartments of the shuttle box, and was allowed to explore the two compartments through the central door, which was opened, for 1 minute. Subsequently, the respective OVX rat was subjected to 16 trials of escapable CS-UCS pairing. […]
# [5] = system: OVX rats; assay: Object recognition test in open box; type: in vivo, female Wistar rats
# Method: Three daily dosages of diosgenin, i.e., 10, 50, or 100 mg/kg, were administered to the experimental animals in the following experiments. A proper amount of diosgenin (Sigma, USA, required for formulating a respective one of the three daily dosages) was mixed with 1 g of toast or raw dough (prepared by mixing flour and water in a ratio of 2:1 (wt/wt)), thereby forming a diosgenin-containing pellet. The experimental animals were orally administered with the diosgenin-containing pellets, starting about 4 weeks after ovariectomy. The open box is made of black polyvinyl plastics. Three objects, which are respectively designated as A1, A2, and A3, are identical in terms of size, color, shape, and material, and have no specific scents. Each of the objects A1, A2, A3 was placed on the bottom of the open box and was spaced apart from a respective one of three corners C1, C2, C3 of the open box by 21 cm (see FIG. 2(A)). The object A3 was later replaced with an object B different from the object A3 in terms of size, color, shape, and material, and having no specific scents (see FIG. 2(B)). Prior to an experiment, each of the objects A1, A2, A3, B was unfamiliar to the experimental animals. The open box and the objects A1, A2, A3, B were thoroughly cleaned using 20% ethanol, and were subsequently thoroughly dried before each of the experimental animals was tested. After the female Wistar rats were raised in the animal room for 4 weeks, the same were subjected to ovariectomy according to the method as described in the section, entitled “1. Ovariectomy”, of the General Experimental Procedure. On the 29th day after the surgery, the OVX rats were randomly divided into four groups including a control group (n=20) and three experimental groups (respectively designated as diosgenin group 1 (n=20), diosgenin group 2 (n=12), and diosgenin group 3 (n=19)). The diosgenin-containing pellets (made using diosgenin and raw dough), which were prepared according to the method as described in the section entitled “2. […]
# [6] = system: OVX rats with anxiety; assay: Learned helplessness test (day-2 active avoidance test, shuttle box), OVX rats with anxiety; type: in vivo, female Wistar rats; details: 23 days; for Avoidance response (number) / Failure response (number) / Escape response (number): 16 trials, mean±SEM
# Method: as §1, §2, §3, §4, §5, §6
# [7] = diosgenin group 1, 10 mg/kg daily oral, n=7
# [8] = diosgenin group 2, 50 mg/kg daily oral, n=6
# [9] = diosgenin group 3, 100 mg/kg daily oral, n=6
# [10] = diosgenin group 1, 10 mg/kg daily oral, n=12
# [11] = diosgenin group 2, 50 mg/kg daily oral, n=11
# [12] = diosgenin group 3, 100 mg/kg daily oral, n=11
compound,measurement,setting,value
"C[C@]12CC[C@H](O)CC1=CC[C@@H]1[C@@H]2CC[C@]2(C)C(=O)CC[C@@H]12 [DHEA, dehydroepiandrosterone]",Bone loss after ovariectomy,[1],significantly reduced
same,Side effects on other body organs,[1],without inducing side effects on other body organs
C[C@@H]1CC[C@@]2(OC1)O[C@H]1C[C@H]3[C@@H]4CC=C5C[C@@H](O)CC[C@]5(C)[C@H]4CC[C@]3(C)[C@H]1[C@@H]2C [diosgenin],Epidermal thickness of OVX mice,[2]; animal model of menopause,capable of improving epidermal thickness
same,Keratinocyte proliferation in aged skin,[2]; animal model of menopause,able to restore keratinocyte proliferation in aged skin
same,Degree of fat accumulation,[2],without altering the degree of fat accumulation
same,Tumor growth,[3],does not accelerate the tumor growth
same,Avoidance response (number),[4]; [7],1.3 ± 0.6 number
same,Escape response (number),[4]; [7],11.7 ± 1.4 number
same,Failure response (number),[4]; [7],3.0 ± 1.6 number
same,Avoidance response (number),[4]; [8],1.2 ± 0.4 number
same,Escape response (number),[4]; [8],13.8 ± 0.5 number
same,Failure response (number),[4]; [8],0.7 ± 0.3 number
same,Avoidance response (number),[4]; [9],2.5 ± 0.8 number
same,Escape response (number),[4]; [9],12.5 ± 1.1 number
same,Failure response (number),[4]; [9],0.8 ± 0.7 number
same,Number of avoidance response and number of escape response versus control group (result in words),"[4]; diosgenin groups 1-3 (10, 50, 100 mg/kg daily oral)",not obviously different from those regarding the OVX rats in the control group
same,"Exploration time spent on object B in the third trial, comparison among groups (result in words)","[5]; diosgenin group 2, 50 mg/kg daily oral, 26 days, FIG. 3",the longest
same,Exploration time spent on object B in the third trial versus object A3 in the second trial (result in words),"[5]; each of diosgenin groups 1-3 (10, 50, 100 mg/kg daily oral, 26 days), FIG. 3",longer than exploration time spent on object A3 in the second trial
same,Ability to memorize a familiar object and to recognize a difference between familiar and novel object (result in words),"[5]; oral diosgenin-containing pellets, 26 days","able to improve the ability to memorize a familiar object and the ability to recognize a difference between the familiar object and a novel object; also recorded: able to improve the ability to memorize a familiar object, and the ability to recognize a difference between the familiar object and a novel object"
same,Avoidance response (number),[6]; [10],2.5 ± 0.9 number
same,Failure response (number),[6]; [10],4.2 ± 1.3 number
same,Escape response (number),"[6]; diosgenin group 1, 10 mg/kg daily oral, n=12, p<0.05 vs control",9.3 ± 1.3 number
same,Avoidance response (number),[6]; [11],1.3 ± 0.5 number
same,Escape response (number),[6]; [11],10.4 ± 1.4 number
same,Failure response (number),[6]; [11],4.4 ± 1.4 number
same,Avoidance response (number),[6]; [12],1.4 ± 0.4 number
same,Escape response (number),[6]; [12],13.2 ± 0.6 number
same,Failure response (number),[6]; [12],1.4 ± 0.5 number
same,Learning ability of the OVX rats with anxiety (result in words),[6]; oral diosgenin-containing pellets,capable of significantly improving the learning ability of the OVX rats with anxiety
same,Bone loss after ovariectomy,[1],significantly reduced
same,Side effects on other body organs,[1],without inducing side effects on other body organs
estrogen,Bone loss after ovariectomy,[1],significantly reduced
same,Side effects on other body organs,[1],without inducing side effects on other body organs
